{"source": "paper PMC11905336", "about": "“Pyrrole‐Tethered Bisbenzoxazole Derivatives: Apoptosis‐Inducing Agents Targeting Breast Cancer Cells” (Chemical Biology & Drug Design, 2025)", "key": {"MCF‐7 cell lines": {"test_system": "MCF‐7 cell lines", "test": "MTT assay, cytotoxicity on MCF-7 cells", "type": "cell-based, human", "details": "for IC50: Homo sapiens, MTT; for IC50 in MCF-7 compared to tamoxifen (fold lower): MCF-7, MTT", "method": "The cytotoxic effects of PTB derivatives on MCF‐7 breast cancer cells were evaluated using the MTT assay at various concentrations (100 nM, 1 μM, 10 μM, 50 μM, and 100 μM).\n(§1) The human dermal fibroblast (HDFa) and human breast cancer cells (MCF‐7) were obtained from the American Type Culture Collection (ATCC; Manassas, VA, USA). Cells were cultured in RPMI medium (MCF‐7) and DMEM medium (HDFa) was supplemented with 10% FBS, 1% penicillin–streptomycin, 1% amphotericin, and 2.5% L‐glutamine at 37°C in a 5% CO2 incubator.\nMTT Method. The MTT method is used to detect and quantify living organisms cultured with the method colorimetrically. This method relies on intact mitochondria cleaving the tetrazolium ring of the MTT dye. The MTT substance is absorbed and reduced to a colorful, water‐insoluble formazan by a mitochondria‐dependent reaction. Cell viability is measured based on the MTT reduction property, and the density of dye obtained from MTT analysis indicates the number of viable cells. In this study, cell viability was assessed using the MTT (0.5 mg/mL) solution that was added to each well. […] After adding properties to cultures, they were kept at 37°C for 24 h and overnight. Then, at 48 and 72 h after applying the molecules, 10 μL of MTT was added to each well and incubated under similar conditions for 4 h. Absorbance spectrophotometry was performed at a wavelength of 570 nm using the IC50 = [(control absorbents‐sample absorbents)/control absorbents] × 100 calculation method (Khorsandi et al. [2017])."}, "HDFa cell lines": {"test_system": "HDFa cell lines", "test": "Cytotoxicity on healthy dermal fibroblasts (MTT / xCELLigence real-time cell analysis)", "type": "cell-based", "details": "Homo sapiens", "method": "The cytotoxicity of these derivatives was also assessed in dermal fibroblast cells using xCELLigence analysis as detailed in the Supporting Information.\nas §1\nxCELLigence Real‐Time Cell Analysis. The xCELLigence system (Real‐Time Cell Analyzer (RTCA) Dual Plate (DP) (Roche Diagnostics GmbH, Penzberg)) was used for real‐time monitoring of cell viability without the need for labeling. A total of 1 × 10^4 HDFa cells were seeded into each well of the E‐plate, and the cell proliferation curve was monitored for 24 h. […] The Cell Index (CI) value was automatically measured every hour for each well using RTCA Software (version 1.2.1) (Yetkin et al. [2021]; Yıldırım et al. [2022])."}, "MCF‐7 cells [1]": {"test_system": "MCF‐7 cells", "test": "Apoptosis/necrosis by flow cytometry, Annexin V/propidium iodide, MCF-7", "type": "cell-based, human", "details": "MCF-7, 48 h, p < 0.05", "method": "Flow cytometry analysis was performed to evaluate the percentages of apoptosis for these compounds compared to tamoxifen. MCF‐7 cell suspensions treated with each compound for 48 h were stained using an apoptosis detection kit and subsequently analyzed using flow cytometry.\n(§2) The assessment of apoptosis through flow cytometry is a valuable method for obtaining quantitative results to determine the levels of apoptosis and necrosis in cells. In our study, the 48th‐hour apoptosis levels of three synthases with the lowest IC50 values (PTB derivatives B8, B14, and B18) were evaluated. To assess apoptosis levels, MCF‐7 cells and healthy fibroblast cells were incubated with these synthases for 48 h. After this incubation period, the cells were treated with Annexin‐V APC and PE propidium iodide (PI) dyes to examine apoptosis levels. Then, to examine the levels of apoptosis, the cells were incubated at a concentration of 2 × 10^5 cells/mL with 5 μL Annexin‐V APC and 10 μL PI dyes in 100 μL Binding buffer for 15 min at room temperature. Samples were then washed twice in PBS, and the BD FACS ARIA III flow cytometry device was used to determine the percentage of apoptotic cells. (Ayaz et al. [2022])."}, "HDFa cells": {"test_system": "HDFa cells", "test": "Apoptosis/necrosis by flow cytometry, Annexin V/propidium iodide, HDFa", "type": "cell-based, human", "details": "48 h, same concentrations as in MCF-7, p < 0.05", "method": "Subsequently, flow cytometry analysis was conducted on HDFa cells.\nas §2"}, "MCF‐7 cells [2]": {"test_system": "MCF‐7 cells", "test": "Cell cycle phases by flow cytometry with propidium iodide, MCF-7", "type": "cell-based, human", "details": "for Change of G2 phase averages vs control: MCF-7, 48 h at IC50; for Change of G1 phase vs control / Change of S phase vs control: MCF-7, 48 h at IC50, p < 0.05", "method": "In the flow cytometry analysis, cell cycle kits facilitated the removal of cytoskeletal and nuclear proteins by disrupting lipid components of the cell membrane using detergents. […] Consequently, we were able to identify abnormal DNA distributions and cell cycle phase profiles in the MCF‐7 breast cancer cell line.\nMCF‐7 cells were seeded in a 6‐well plate at a density of 1 × 10^6 cells and incubated for 24 h. […] MCF‐7 cells were then trypsinized, stained, and analyzed using a BD FACSAria III flow cytometer (BD Biosciences, Bedford, MA, USA) with FACS Diva Software and ModFit LT.\nThe cell cycle kit (MCE USA‐HY‐K1071‐50 T) works on the principle of dissolving the lipids in the cell membrane with the help of detergents. This kit was used to identify cells with abnormal DNA and cell cycle phase distributions in a breast cancer cell line. It was analyzed by removing the cytoskeleton and nuclear proteins with the help of trypsin and digesting the cellular RNA by enzymes. Cells were seeded at 1 × 10^6 in a 6‐well plate and incubated for 24 h. […] Cells were removed by adding trypsin to adherent cells. They were centrifuged at 1000 g for 3–5 min at 4°C, and then the supernatant was discarded. One milliliter of prechilled PBS was added to resuspend the cells, centrifuged at 1000 g for 3–5 min at 4°C, and detected via BD FACSAria III flow cytometer (BD Biosciences, Bedford, MA, USA). Percentage data were obtained using FACS Diva Software and ModFit LT (Şimşek et al. [2020])."}, "MCF‐7": {"test_system": "MCF‐7", "parameters": "method as in Desai et al. [2020]", "details": "ref Desai et al. [2020]; cited from earlier work"}, "MDA‐MB‐231": {"test_system": "MDA‐MB‐231", "parameters": "method as in Desai et al. [2020]", "details": "ref Desai et al. [2020]; cited from earlier work"}, "[3]": {"test_system": "HeLa and HepG2 cell lines", "parameters": "method as in Srivastava et al. [2015]", "details": "ref Srivastava et al. [2015]; cited from earlier work"}, "[4]": {"test_system": "A549 and MCF‐7 cell lines", "parameters": "method as in Belal and Abdelgawad [2017]", "details": "ref Belal and Abdelgawad [2017]; cited from earlier work"}, "MCF‐7 cell line": {"test_system": "MCF‐7 cell line", "parameters": "method as in earlier work", "details": "MCF-7, XTT assay, ref Kuzu, Hepokur, Alagoz, et al. [2022], Turkmenoglu; cited from earlier work"}, "[5]": {"test_system": "A549, A498, HeLa, and HepG2", "parameters": "method as in Ersan et al. [2020]", "details": "ref Ersan et al. [2020], cited from earlier work"}, "Vero healthy cell line": {"test_system": "Vero healthy cell line", "parameters": "method as in Ersan et al. [2020]", "details": "ref Ersan et al. [2020]; cited from earlier work"}, "MCF‐7 cells [6]": {"test_system": "MCF‐7 cells", "parameters": "method as in earlier work", "details": "MCF-7, cell cycle analysis, ref Kuzu, Hepokur, Alagoz, et al. [2022], Turkmenoglu; cited from earlier work"}, "[7]": {"details": "MCF7, read-out: IC50 (μM) for MCF‐7 cell lines, 48 h"}, "[8]": {"details": "MCF7, 24 h, read-out: IC50 (μM) for MCF‐7 cell lines, 24 h"}, "[9]": {"details": "MCF7, 72 h, read-out: IC50 (μM) for MCF‐7 cell lines, 72 h"}, "[10]": {"details": "24 h, values greater than 100 not calculated, read-out: IC50 (μM) for HDFa cell lines, 24 h"}, "[11]": {"details": "72 h, values greater than 100 not calculated, read-out: IC50 (μM) for HDFa cell lines, 72 h"}, "[12]": {"details": "read-out: IC50 (μM) for HDFa cell lines, 48 h, values greater than 100 not calculated"}}, "note": "Read-outs that look alike come from different tables or passages of the source."}
{"molecule": "COC(=O)c1ccc2nc(-c3ccc(-c4nc5cc(OC)ccc5o4)[nH]3)oc2c1", "note": "[Compound B18, Methyl 2‐(5‐(5‐Methoxybenzo[d]Oxazol‐2‐Yl)‐1H‐Pyrrol‐2‐Yl)benzo[d]Oxazole‐6‐Carboxylate]", "values": [{"measurement": "IC50", "setting": "MCF‐7 cell lines; [7]", "value": "1.3 ± 0.98", "unit": "µM"}, {"measurement": "IC50", "setting": "MCF‐7 cell lines; [8]", "value": "3.53 ± 1.35", "unit": "µM"}, {"measurement": "IC50", "setting": "MCF‐7 cell lines; [9]", "value": "2.69 ± 0.73", "unit": "µM"}, {"measurement": "IC50 in MCF-7 compared to tamoxifen (fold lower)", "setting": "MCF‐7 cell lines", "value": "approximately 8 fold"}, {"measurement": "IC50", "setting": "HDFa cell lines; [10]", "value": "98.3 ± 1.58", "unit": "µM"}, {"measurement": "IC50", "setting": "HDFa cell lines; [11]", "value": "≥ 100", "unit": "µM"}, {"measurement": "IC50", "setting": "HDFa cell lines; [12]", "value": "≥ 100", "unit": "µM"}, {"measurement": "Secondary apoptosis vs control", "setting": "MCF‐7 cells [1]", "value": "significantly elevated"}, {"measurement": "Average number of viable cells vs control", "setting": "HDFa cells", "value": "significant decrease"}, {"measurement": "Percentage of necrosis vs control", "setting": "HDFa cells", "value": "notable increase"}, {"measurement": "Change of G2 phase averages vs control", "setting": "MCF‐7 cells [2]", "value": "No significant changes"}, {"measurement": "Change of G1 phase vs control", "setting": "MCF‐7 cells [2]", "value": "significant increase"}, {"measurement": "Change of S phase vs control", "setting": "MCF‐7 cells [2]", "value": "corresponding decrease"}]}
{"molecule": "c1ccc2nc(-c3nc4ccccc4o3)cnc2c1", "note": "[Compound 12]", "values": [{"measurement": "IC50", "setting": "MCF‐7", "value": 0.53, "unit": "µM"}, {"measurement": "IC50", "setting": "MDA‐MB‐231", "value": 0.5, "unit": "µM"}]}
{"molecule": "c1ccc(Cn2nnc(-c3ccccc3)c2-c2nc3ccccc3o2)cc1", "note": "[Compound 10]", "values": [{"measurement": "IC50", "setting": "[3]", "value": "5 to 30", "unit": "µg/mL"}]}
{"molecule": "c1ccc(-c2cc(-c3nc4ccccc4o3)[nH]n2)cc1", "note": "[Compound 11]", "values": [{"measurement": "IC50", "setting": "[4]", "value": "0.12 to 0.19", "unit": "µM"}]}
{"molecule": "CC/C(=C(\\c1ccccc1)c1ccc(OCCN(C)C)cc1)c1ccccc1", "note": "[Tamoxifen, reference compound]", "values": [{"measurement": "Secondary apoptosis vs control", "setting": "MCF‐7 cells [1]", "value": "significantly elevated"}, {"measurement": "Average number of viable cells vs control", "setting": "HDFa cells", "value": "significant decrease"}, {"measurement": "Percentage of necrosis vs control", "setting": "HDFa cells", "value": "notable increase"}, {"measurement": "Change of G2 phase averages vs control", "setting": "MCF‐7 cells [2]", "value": "No significant changes"}, {"measurement": "Change of G1 phase vs control", "setting": "MCF‐7 cells [2]", "value": "significant increase"}, {"measurement": "Change of S phase vs control", "setting": "MCF‐7 cells [2]", "value": "corresponding decrease"}]}
{"molecule": "O=c1[nH]cc(F)c(=O)[nH]1", "note": "[5‐FU, 5‐fluorouracil]", "values": [{"measurement": "IC50", "setting": "MCF‐7 cell line", "value": 5.06, "unit": "µM"}]}
{"molecule": "c1ccc2oc(CNCc3nc4ccccc4o3)nc2c1", "note": "[Compound 16]", "values": [{"measurement": "IC50", "setting": "[5]; range across A549, A498, HeLa, HepG2", "value": "0.56 to 2.24", "unit": "µM"}, {"measurement": "Selectivity for A549 lung cancer cell line compared to other tested cancer cell lines", "setting": "[5]", "value": "fourfold higher selectivity"}, {"measurement": "Cytotoxicity against Vero healthy cell line", "setting": "Vero healthy cell line", "value": "minimal cytotoxicity"}]}
{"molecule": "COc1ccc2oc(C(=O)N3CCCCC3)nc2c1", "note": "[Compound 14]", "values": [{"measurement": "G0/G1 phase arrest", "setting": "MCF‐7 cells [6]", "value": 71.2, "unit": "%"}]}
{"molecule": "COC(=O)c1ccc2nc(-c3ccc(-c4nc5cc(C)ccc5o4)[nH]3)oc2c1", "note": "[Compound B14, Methyl 2‐(5‐(5‐Methylbenzo[d]Oxazol‐2‐Yl)‐1H‐Pyrrol‐2‐Yl)benzo[d]Oxazole‐6‐Carboxylate]", "values": [{"measurement": "IC50", "setting": "MCF‐7 cell lines; [7]", "value": "0.95 ± 1.01", "unit": "µM"}, {"measurement": "IC50", "setting": "MCF‐7 cell lines; [8]", "value": "3.28 ± 0.74", "unit": "µM"}, {"measurement": "IC50", "setting": "MCF‐7 cell lines; [9]", "value": "3.02 ± 2.18", "unit": "µM"}, {"measurement": "IC50 in MCF-7 compared to tamoxifen (fold lower)", "setting": "MCF‐7 cell lines", "value": "approximately 8 fold"}, {"measurement": "IC50", "setting": "HDFa cell lines; [10]", "value": "94.5 ± 1.37", "unit": "µM"}, {"measurement": "IC50", "setting": "HDFa cell lines; [11]", "value": "97.4 ± 2.83", "unit": "µM"}, {"measurement": "IC50", "setting": "HDFa cell lines; [12]", "value": "96.3 ± 1.38", "unit": "µM"}, {"measurement": "Necrosis percentage vs control", "setting": "MCF‐7 cells [1]", "value": "significant changes in all groups except for the B14 group"}, {"measurement": "Change of G2 phase averages vs control", "setting": "MCF‐7 cells [2]", "value": "No significant changes"}, {"measurement": "Change of G1 phase vs control", "setting": "MCF‐7 cells [2]", "value": "significant increase"}, {"measurement": "Change of S phase vs control", "setting": "MCF‐7 cells [2]", "value": "corresponding decrease"}]}
